molecular target: human GPR40 receptor (Homo sapiens (Human), UniProt O14842); experiment: IP1 accumulation measurements using the IPOne assay system; assay type: cell-based; conditions: 1321N1 cells stably expressing human GPR40, 1 h stimulation
Protocol: IP1 accumulation measurements using the IPOne assay system—1321N1 cells stably expressing human GPR40 receptor (Euroscreen, Belgium) are seeded 24 h before the assay in white 384-well plates in culture medium containing 10% FCS, 1% Na-Pyruvate and 400 μg/mL G418. IP1 is assayed according to the manufacturer's description (Cisbio Bioassays, France). In brief, the assay is started by substitution of the culture medium by stimulation buffer (Hepes 10 mM, CaCl2) 1 mM, MgCl2 0.5 mM, KCl 4.2 mM, NaCl 146 mM, glucose 5.5 mM and LiCl 50 mM, pH 7.4). Cells are stimulated for 1 h at 37° C., 5% CO2 by addition of the compounds that are diluted in stimulation buffer containing LiCl. Assays are stopped by adding HTRF-conjugates (IP1-d2 and Anti-IP1 cryptate Tb) and lysis buffer, provided by the manufacturer. After an incubation time of 1 h at room temperature plates are measured using an EnVision™, Perkin Elmer. The obtained fluorescence ratios at 665/615 […] are then used to calculate the pEC50 values using Assay Explorer 3.3 Software (Accelrys, Inc.) by interpolation using an IP1 reference curve and subsequent sigmoidal curve fitting allowing for a variable hill slope.

Chain of human GPR40 receptor (O14842 whole entry): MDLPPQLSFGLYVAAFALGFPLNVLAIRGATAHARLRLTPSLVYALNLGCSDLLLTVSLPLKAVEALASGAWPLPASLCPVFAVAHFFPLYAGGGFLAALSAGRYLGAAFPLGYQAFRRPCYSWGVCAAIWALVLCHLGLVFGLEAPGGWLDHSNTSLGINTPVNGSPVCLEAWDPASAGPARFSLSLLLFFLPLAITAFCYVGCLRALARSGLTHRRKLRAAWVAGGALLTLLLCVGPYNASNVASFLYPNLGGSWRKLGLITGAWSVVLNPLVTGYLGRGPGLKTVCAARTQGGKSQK

| SMILES | EC50 |
| --- | --- |
| Cc1cc(OCCC(C)(C)O)cc(C)c1-c1ccc(F)c2c1CC[C@H]2Nc1cc2c(cn1)[C@@H](CC(=O)O)CO2 [Example 2, ((R)-6-{(R)-7-Fluoro-4-[4-(3-hydroxy-3-methyl-butoxy)-2,6-dimethyl-phenyl]-indan-1-ylamino}-2,3-dihydro-furo[3,2-c]pyridin-3-yl)-acetic Acid] | 764 nM |
| Cc1cc(OCCC(C)(C)O)cc(C)c1-c1cccc2c1CC[C@H]2Nc1cc2c(cn1)[C@H](CC(=O)O)CO2 [Example 3, ((S)-6-{(R)-4-[4-(3-Hydroxy-3-methyl-butoxy)-2,6-dimethyl-phenyl]-indan-1-ylamino}-2,3-dihydro-furo[3,2-c]pyridin-3-yl)-acetic Acid] | 21 nM |
| Cc1cc(OCCC(C)(C)O)cc(C)c1-c1cccc2c1CC[C@H]2Nc1cc2c(cn1)[C@@H](CC(=O)O)CO2 [Example 4, ((R)-6-{(R)-4-[4-(3-Hydroxy-3-methyl-butoxy)-2,6-dimethyl-phenyl]-indan-1-ylamino}-2,3-dihydro-furo[3,2-c]pyridin-3-yl)-acetic acid] | 751 nM |
| Cc1cc(-c2nnn(C)n2)cc(C)c1-c1ccc(F)c2c1CC[C@H]2Nc1cc2c(cn1)[C@@H](CC(=O)O)CO2 [Example 6, ((R)-6-{(R)-4-[2,6-Dimethyl-4-(2-methyl-2H-tetrazol-5-yl)-phenyl]-7-fluoro-indan-1-ylamino}-2,3-dihydro-furo[3,2-c]pyridin-3-yl)-acetic Acid] | 382 nM |
| Cc1cc(-c2nnn(C)n2)cc(C)c1-c1cccc2c1CC[C@H]2Nc1cc2c(cn1)[C@H](CC(=O)O)CO2 [Example 7, ((S)-6-{(R)-4-[2,6-Dimethyl-4-(2-methyl-2H-tetrazol-5-yl)-phenyl]-indan-1-ylamino}-2,3-dihydro-furo[3,2-c]pyridin-3-yl)-acetic Acid] | 7 nM |
| Cc1cc(-c2nnn(C)n2)cc(C)c1-c1cccc2c1CC[C@H]2Nc1cc2c(cn1)[C@@H](CC(=O)O)CO2 [Example 8, ((R)-6-{(R)-4-[2,6-Dimethyl-4-(2-methyl-2H-tetrazol-5-yl)-phenyl]-indan-1-ylamino}-2,3-dihydro-furo[3,2-c]pyridin-3-yl)-acetic acid] | 378 nM |
| Cc1cc(O[C@@H]2CCOC2)cc(C)c1-c1ccc(F)c2c1CC[C@H]2Nc1cc2c(cn1)[C@H](CC(=O)O)CO2 [Example 9, [(S)-6-((R)-4-{2,6-Dimethyl-4-[(R)-(tetrahydro-furan-3-yl)oxy]-phenyl}-7-fluoro-indan-1-ylamino)-2,3-dihydro-furo[3,2-c]pyridin-3-yl]-acetic Acid] | 57 nM |
| Cc1cc(OC2CCOCC2)cc(C)c1-c1ccc(F)c2c1CC[C@H]2Nc1cc2c(cn1)[C@H](CC(=O)O)CO2 [Example 10, ((S)-6-{(R)-4-[2,6-Dimethyl-4-(tetrahydro-pyran-4-yloxy)-phenyl]-7-fluoro-indan-1-ylamino}-2,3-dihydro-furo[3,2-c]pyridin-3-yl)-acetic Acid] | 56 nM |
| Cc1cc(OCC2(C)COC2)cc(C)c1-c1ccc(F)c2c1CC[C@H]2Nc1cc2c(cn1)[C@H](CC(=O)O)CO2 [Example 11, ((S)-6-{(R)-4-[2,6-Dimethyl-4-(3-methyl-oxetan-3-ylmethoxy)-phenyl]-7-fluoro-indan-1-ylamino}-2,3-dihydro-furo[3,2-c]pyridin-3-yl)-acetic Acid] | 37 nM |
| Cc1cc(O[C@H]2CCOC2)cc(C)c1-c1ccc(F)c2c1CC[C@H]2Nc1cc2c(cn1)[C@H](CC(=O)O)CO2 [Example 12, [(S)-6-((R)-4-{2,6-Dimethyl-4-[(S)-(tetrahydro-furan-3-yl)oxy]-phenyl}-7-fluoro-indan-1-ylamino)-2,3-dihydro-furo[3,2-c]pyridin-3-yl]-acetic Acid] | 73 nM |
| Cc1cc(OCC(C)(C)O)cc(C)c1-c1ccc(F)c2c1CC[C@H]2Nc1cc2c(cn1)[C@H](CC(=O)O)CO2 [Example 13, ((S)-6-{(R)-7-Fluoro-4-[4-(2-hydroxo-2-methyl-propoxy)-2,6-dimethyl-phenyl]-indan-1-ylamino}-2,3-dihydro-furo[3,2-c]pyridin-3-yl)-acetic Acid] | 35 nM |
| Cc1cc(OCC2CCOC2)cc(C)c1-c1ccc(F)c2c1CC[C@H]2Nc1cc2c(cn1)[C@H](CC(=O)O)CO2 (stereo partly drawn) [Example 14, ((S)-6-{(R)-4-[2,6-Dimethyl-4-(tetrahydro-furan-3-ylmethoxy)-phenyl]-7-fluoro-indan-1-ylamino}-2,3-dihydro-furo[3,2-c]pyridin-3-yl)-acetic Acid] | 27 nM |
| Cc1cc(-c2nnn(CC(C)(C)O)n2)cc(C)c1-c1ccc(F)c2c1CC[C@H]2Nc1cc2c(cn1)[C@H](CC(=O)O)CO2 [Example 15, [(S)-6-((R)-7-Fluoro-4-{4-[2-(2-hydroxo-2-methyl-propyl)-2H-tetrazol-5-yl]-2,6-dimethyl-phenyl}-indan-1-ylamino)-2,3-dihydro-furo[3,2-c]pyridin-3-yl]-acetic acid] | 9 nM |
| Cc1cc(-c2ccn(C)c(=O)n2)cc(C)c1-c1ccc(F)c2c1CC[C@H]2Nc1cc2c(cn1)[C@H](CC(=O)O)CO2 [Example 16, ((S)-6-{(R)-4-[2,6-Dimethyl-4-(1-methyl-2-oxo-1,2-dihydro-pyrimidin-4-yl)-phenyl]-7-fluoro-indan-1-ylamino}-2,3-dihydro-furo[3,2-c]pyridin-3-yl)-acetic acid] | 27 nM |
| Cc1cc(-c2ccn(C)c(=O)c2)cc(C)c1-c1ccc(F)c2c1CC[C@H]2Nc1cc2c(cn1)[C@H](CC(=O)O)CO2 [Example 17, ((S)-6-{(R)-4-[2,6-Dimethyl-4-(1-methyl-2-oxo-1,2-dihydro-pyridin-4-yl)-phenyl]-7-fluoro-indan-1-ylamino}-2,3-dihydro-furo[3,2-c]pyridin-3-yl)-acetic Acid] | 12 nM |
| Cc1cc(-c2cc(=O)n(C)cn2)cc(C)c1-c1ccc(F)c2c1CC[C@H]2Nc1cc2c(cn1)[C@H](CC(=O)O)CO2 [Example 18, ((S)-6-{(R)-4-[2,6-Dimethyl-4-(1-methyl-6-oxo-1,6-dihydro-pyrimidin-4-yl)-phenyl]-7-fluoro-indan-1-ylamino}-2,3-dihydro-furo[3,2-c]pyridin-3-yl)-acetic Acid] | 14 nM |
| Cc1cc(-c2ccc(=O)n(C)c2)cc(C)c1-c1ccc(F)c2c1CC[C@H]2Nc1cc2c(cn1)[C@H](CC(=O)O)CO2 [Example 19, ((S)-6-{(R)-4-[2,6-Dimethyl-4-(1-methyl-6-oxo-1,6-dihydro-pyridin-3-yl)-phenyl]-7-fluoro-indan-1-ylamino}-2,3-dihydro-furo[3,2-c]pyridin-3-yl)-acetic Acid] | 27 nM |
| Cc1cc(-c2cnccn2)cc(C)c1-c1ccc(F)c2c1CC[C@H]2Nc1cc2c(cn1)[C@H](CC(=O)O)CO2 [Example 20, {(S)-6-[(R)-4-(2,6-Dimethyl-4-pyrazin-2-yl-phenyl)-7-fluoro-indan-1-ylamino]-2,3-dihydro-furo[3,2-c]pyridin-3-yl}-acetic acid] | 9 nM |

— patent US10550127B1, “Indanylaminoazadihydrobenzofuranylacetic acids, pharmaceutical compositions for the treatment of diabetes” (Boehringer Ingelheim International GmbH, priority 2017, dated 2020)
